Results: ChEMBL document CHEMBL3046743, “Synthesis and in vitro antimicrobial evaluation of penta-substituted pyridine derivatives bearing the quinoline nucleus” (2012)
≈ marks a conversion by molar mass, not a printed value.

Key:
Format in all cases: functional
Clostridium tetani = test: Antibacterial activity against Clostridium tetani MTCC 449 after 24 hr by broth microdilution method; conditions: MTCC 449, 24 h
Escherichia coli = test: Antibacterial activity against Escherichia coli MTCC 443 after 24 hr by broth microdilution method; conditions: MTCC 443, 24 h
Streptococcus pneumoniae = test: Antibacterial activity against Streptococcus pneumoniae MTCC 1936 after 24 hr by broth microdilution method; conditions: MTCC 1936, 24 h
Vibrio cholerae = test: Antibacterial activity against Vibrio cholerae MTCC 3906 after 24 hr by broth microdilution method; conditions: MTCC 3906, 24 h
Bacillus subtilis = test: Antibacterial activity against Bacillus subtilis MTCC 441 after 24 hr by broth microdilution method; conditions: MTCC 441, 24 h
Salmonella typhi = test: Antibacterial activity against Salmonella enterica subsp. enterica serovar Typhi MTCC 98 after 24 hr by broth microdilution method; conditions: MTCC 98, 24 h
Candida albicans = test: Antifungal activity against Candida albicans MTCC 227 after 48 hr by broth microdilution method; conditions: MTCC 227, 48 h
Aspergillus fumigatus = test: Antifungal activity against Aspergillus fumigatus MTCC 3008 after 48 hr by broth microdilution method; conditions: MTCC 3008, 48 h

## CCn1cc(C(=O)O)c(=O)c2cc(F)c(N3CCNCC3)cc21 [NORFLOXACIN]
Clostridium tetani
  MIC: 50 µg/mL (≈ 157 µM)
Escherichia coli
  MIC: 10 µg/mL (≈ 31.3 µM)
Streptococcus pneumoniae
  MIC: 10 µg/mL (≈ 31.3 µM)
Vibrio cholerae
  MIC: 10 µg/mL (≈ 31.3 µM)
Bacillus subtilis
  MIC: 100 µg/mL (≈ 313 µM)
Salmonella typhi
  MIC: 10 µg/mL (≈ 31.3 µM)

## N#Cc1c(N)nc(Sc2ccc(Cl)cc2)c(C#N)c1-c1cc2ccccc2nc1Cl
Clostridium tetani
  MIC: 250 µg/mL (≈ 558 µM)
Escherichia coli
  MIC: 100 µg/mL (≈ 223 µM)
Candida albicans
  MIC: 1000 µg/mL (≈ 2230 µM)
Streptococcus pneumoniae
  MIC: 250 µg/mL (≈ 558 µM)
Vibrio cholerae
  MIC: 250 µg/mL (≈ 558 µM)
Bacillus subtilis
  MIC: 250 µg/mL (≈ 558 µM)
Salmonella typhi
  MIC: 150 µg/mL (≈ 335 µM)
Aspergillus fumigatus
  MIC: 1000 µg/mL (≈ 2230 µM)

## COC1=CC(=O)C[C@@H](C)[C@]12Oc1c(Cl)c(OC)cc(OC)c1C2=O [GRISEOFULVIN]
Candida albicans
  MIC: 100 µg/mL (≈ 283 µM)
Aspergillus fumigatus
  MIC: 500 µg/mL (≈ 1420 µM)

## Cc1ccc2nc(Cl)c(-c3c(C#N)c(N)nc(Sc4ccccc4)c3C#N)cc2c1
Clostridium tetani
  MIC: 500 µg/mL (≈ 1170 µM)
Escherichia coli
  MIC: 200 µg/mL (≈ 467 µM)
Candida albicans
  MIC: > 1000 µg/mL
Streptococcus pneumoniae
  MIC: 250 µg/mL (≈ 584 µM)
Vibrio cholerae
  MIC: 250 µg/mL (≈ 584 µM)
Bacillus subtilis
  MIC: 500 µg/mL (≈ 1170 µM)
Salmonella typhi
  MIC: 200 µg/mL (≈ 467 µM)
Aspergillus fumigatus
  MIC: > 1000 µg/mL

## Cc1ccc(Sc2nc(N)c(C#N)c(-c3cc4ccc(C)cc4nc3Cl)c2C#N)cc1
Clostridium tetani
  MIC: 200 µg/mL (≈ 453 µM)
Escherichia coli
  MIC: 200 µg/mL (≈ 453 µM)
Candida albicans
  MIC: > 1000 µg/mL
Streptococcus pneumoniae
  MIC: 200 µg/mL (≈ 453 µM)
Vibrio cholerae
  MIC: 200 µg/mL (≈ 453 µM)
Bacillus subtilis
  MIC: 200 µg/mL (≈ 453 µM)
Salmonella typhi
  MIC: 250 µg/mL (≈ 566 µM)
Aspergillus fumigatus
  MIC: > 1000 µg/mL

## N#Cc1c(N)nc(Sc2ccccc2)c(C#N)c1-c1cc2ccccc2nc1Cl
Clostridium tetani
  MIC: 500 µg/mL (≈ 1210 µM)
Escherichia coli
  MIC: 200 µg/mL (≈ 483 µM)
Candida albicans
  MIC: 500 µg/mL (≈ 1210 µM)
Streptococcus pneumoniae
  MIC: 250 µg/mL (≈ 604 µM)
Vibrio cholerae
  MIC: 200 µg/mL (≈ 483 µM)
Bacillus subtilis
  MIC: 250 µg/mL (≈ 604 µM)
Salmonella typhi
  MIC: 200 µg/mL (≈ 483 µM)
Aspergillus fumigatus
  MIC: 500 µg/mL (≈ 1210 µM)

## COc1ccc2nc(Cl)c(-c3c(C#N)c(N)nc(Sc4ccc(C)cc4)c3C#N)cc2c1
Clostridium tetani
  MIC: 500 µg/mL (≈ 1090 µM)
Escherichia coli
  MIC: 500 µg/mL (≈ 1090 µM)
Candida albicans
  MIC: > 1000 µg/mL
Streptococcus pneumoniae
  MIC: 500 µg/mL (≈ 1090 µM)
Vibrio cholerae
  MIC: 500 µg/mL (≈ 1090 µM)
Bacillus subtilis
  MIC: 500 µg/mL (≈ 1090 µM)
Salmonella typhi
  MIC: 500 µg/mL (≈ 1090 µM)
Aspergillus fumigatus
  MIC: > 1000 µg/mL

## Cc1ccc(Sc2nc(N)c(C#N)c(-c3cc4cc(C)ccc4nc3Cl)c2C#N)cc1
Clostridium tetani
  MIC: 500 µg/mL (≈ 1130 µM)
Escherichia coli
  MIC: 250 µg/mL (≈ 566 µM)
Candida albicans
  MIC: 250 µg/mL (≈ 566 µM)
Streptococcus pneumoniae
  MIC: 100 µg/mL (≈ 226 µM)
Vibrio cholerae
  MIC: 500 µg/mL (≈ 1130 µM)
Bacillus subtilis
  MIC: 100 µg/mL (≈ 226 µM)
Salmonella typhi
  MIC: 200 µg/mL (≈ 453 µM)
Aspergillus fumigatus
  MIC: 500 µg/mL (≈ 1130 µM)

## COc1ccc2nc(Cl)c(-c3c(C#N)c(N)nc(Sc4ccc(Cl)cc4)c3C#N)cc2c1
Clostridium tetani
  MIC: 200 µg/mL (≈ 418 µM)
Escherichia coli
  MIC: 200 µg/mL (≈ 418 µM)
Candida albicans
  MIC: 1000 µg/mL (≈ 2090 µM)
Streptococcus pneumoniae
  MIC: 250 µg/mL (≈ 523 µM)
Vibrio cholerae
  MIC: 200 µg/mL (≈ 418 µM)
Bacillus subtilis
  MIC: 250 µg/mL (≈ 523 µM)
Salmonella typhi
  MIC: 200 µg/mL (≈ 418 µM)
Aspergillus fumigatus
  MIC: > 1000 µg/mL

## Cc1ccc2nc(Cl)c(-c3c(C#N)c(N)nc(Sc4ccc(Cl)cc4)c3C#N)cc2c1
Clostridium tetani
  MIC: 250 µg/mL (≈ 541 µM)
Escherichia coli
  MIC: 62.5 µg/mL (≈ 135 µM)
Candida albicans
  MIC: 500 µg/mL (≈ 1080 µM)
Streptococcus pneumoniae
  MIC: 200 µg/mL (≈ 433 µM)
Vibrio cholerae
  MIC: 200 µg/mL (≈ 433 µM)
Bacillus subtilis
  MIC: 200 µg/mL (≈ 433 µM)
Salmonella typhi
  MIC: 100 µg/mL (≈ 216 µM)
Aspergillus fumigatus
  MIC: 500 µg/mL (≈ 1080 µM)

## Cc1ccc(Sc2nc(N)c(C#N)c(-c3cc4ccccc4nc3Cl)c2C#N)cc1
Clostridium tetani
  MIC: 250 µg/mL (≈ 584 µM)
Escherichia coli
  MIC: 100 µg/mL (≈ 234 µM)
Candida albicans
  MIC: > 1000 µg/mL
Streptococcus pneumoniae
  MIC: 200 µg/mL (≈ 467 µM)
Vibrio cholerae
  MIC: 62.5 µg/mL (≈ 146 µM)
Bacillus subtilis
  MIC: 250 µg/mL (≈ 584 µM)
Salmonella typhi
  MIC: 100 µg/mL (≈ 234 µM)
Aspergillus fumigatus
  MIC: > 1000 µg/mL

## N#Cc1c(N)nc(Sc2ccc(Cl)cc2)c(C#N)c1-c1cc2cc(Cl)ccc2nc1Cl
Clostridium tetani
  MIC: 500 µg/mL (≈ 1040 µM)
Escherichia coli
  MIC: 250 µg/mL (≈ 518 µM)
Candida albicans
  MIC: 200 µg/mL (≈ 414 µM)
Streptococcus pneumoniae
  MIC: 500 µg/mL (≈ 1040 µM)
Vibrio cholerae
  MIC: 500 µg/mL (≈ 1040 µM)
Bacillus subtilis
  MIC: 250 µg/mL (≈ 518 µM)
Salmonella typhi
  MIC: 250 µg/mL (≈ 518 µM)
Aspergillus fumigatus
  MIC: 500 µg/mL (≈ 1040 µM)

## COc1ccc2nc(Cl)c(-c3c(C#N)c(N)nc(Sc4ccccc4)c3C#N)cc2c1
Clostridium tetani
  MIC: 200 µg/mL (≈ 451 µM)
Escherichia coli
  MIC: 500 µg/mL (≈ 1130 µM)
Candida albicans
  MIC: 1000 µg/mL (≈ 2250 µM)
Streptococcus pneumoniae
  MIC: 250 µg/mL (≈ 563 µM)
Vibrio cholerae
  MIC: 500 µg/mL (≈ 1130 µM)
Bacillus subtilis
  MIC: 250 µg/mL (≈ 563 µM)
Salmonella typhi
  MIC: 500 µg/mL (≈ 1130 µM)
Aspergillus fumigatus
  MIC: 1000 µg/mL (≈ 2250 µM)

## N#Cc1c(N)nc(Sc2ccccc2)c(C#N)c1-c1cc2cc(Cl)ccc2nc1Cl
Clostridium tetani
  MIC: 250 µg/mL (≈ 558 µM)
Escherichia coli
  MIC: 200 µg/mL (≈ 446 µM)
Candida albicans
  MIC: 250 µg/mL (≈ 558 µM)
Streptococcus pneumoniae
  MIC: 200 µg/mL (≈ 446 µM)
Vibrio cholerae
  MIC: 200 µg/mL (≈ 446 µM)
Bacillus subtilis
  MIC: 100 µg/mL (≈ 223 µM)
Salmonella typhi
  MIC: 250 µg/mL (≈ 558 µM)
Aspergillus fumigatus
  MIC: 250 µg/mL (≈ 558 µM)

## Cc1ccc2cc(-c3c(C#N)c(N)nc(Sc4ccc(Cl)cc4)c3C#N)c(Cl)nc2c1
Clostridium tetani
  MIC: 250 µg/mL (≈ 541 µM)
Escherichia coli
  MIC: 500 µg/mL (≈ 1080 µM)
Candida albicans
  MIC: > 1000 µg/mL
Streptococcus pneumoniae
  MIC: 250 µg/mL (≈ 541 µM)
Vibrio cholerae
  MIC: 500 µg/mL (≈ 1080 µM)
Bacillus subtilis
  MIC: 250 µg/mL (≈ 541 µM)
Salmonella typhi
  MIC: 500 µg/mL (≈ 1080 µM)
Aspergillus fumigatus
  MIC: > 1000 µg/mL

## CC1(C)S[C@@H]2[C@H](NC(=O)[C@H](N)c3ccccc3)C(=O)N2[C@H]1C(=O)O [AMPICILLIN]
Clostridium tetani
  MIC: 250 µg/mL (≈ 715 µM)
Escherichia coli
  MIC: 100 µg/mL (≈ 286 µM)
Streptococcus pneumoniae
  MIC: 100 µg/mL (≈ 286 µM)
Vibrio cholerae
  MIC: 100 µg/mL (≈ 286 µM)
Bacillus subtilis
  MIC: 250 µg/mL (≈ 715 µM)
Salmonella typhi
  MIC: 100 µg/mL (≈ 286 µM)

## Cc1ccc(Sc2nc(N)c(C#N)c(-c3cc4cc(Cl)ccc4nc3Cl)c2C#N)cc1
Clostridium tetani
  MIC: 200 µg/mL (≈ 433 µM)
Escherichia coli
  MIC: 200 µg/mL (≈ 433 µM)
Candida albicans
  MIC: 250 µg/mL (≈ 541 µM)
Streptococcus pneumoniae
  MIC: 250 µg/mL (≈ 541 µM)
Vibrio cholerae
  MIC: 200 µg/mL (≈ 433 µM)
Bacillus subtilis
  MIC: 200 µg/mL (≈ 433 µM)
Salmonella typhi
  MIC: 200 µg/mL (≈ 433 µM)
Aspergillus fumigatus
  MIC: 500 µg/mL (≈ 1080 µM)

## Cc1ccc2cc(-c3c(C#N)c(N)nc(Sc4ccccc4)c3C#N)c(Cl)nc2c1
Clostridium tetani
  MIC: 200 µg/mL (≈ 467 µM)
Escherichia coli
  MIC: 100 µg/mL (≈ 234 µM)
Candida albicans
  MIC: 1000 µg/mL (≈ 2340 µM)
Streptococcus pneumoniae
  MIC: 100 µg/mL (≈ 234 µM)
Vibrio cholerae
  MIC: 250 µg/mL (≈ 584 µM)
Bacillus subtilis
  MIC: 100 µg/mL (≈ 234 µM)
Salmonella typhi
  MIC: 200 µg/mL (≈ 467 µM)
Aspergillus fumigatus
  MIC: 1000 µg/mL (≈ 2340 µM)
